Here are results for two molecules from article PMC12865480 (Pharmaceuticals, 2025).

For one data set, the target named is T1, σ2 receptor (Rattus norvegicus, UniProt Q5U3Y7).
T1 sequence (Q5U3Y7 1-176): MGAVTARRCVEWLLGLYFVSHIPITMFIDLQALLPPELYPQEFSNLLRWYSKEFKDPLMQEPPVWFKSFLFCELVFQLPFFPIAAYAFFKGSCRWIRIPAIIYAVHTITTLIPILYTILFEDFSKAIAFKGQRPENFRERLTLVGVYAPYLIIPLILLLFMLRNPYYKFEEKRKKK
The data set is described as follows: biochemical. The class given is binding. The following applies: read-out: Ki ± SEM σ2.

In data set [1] the target is PCP binding site of the NMDA receptor. The data set is described as follows: PCP binding site assay, radioligand [3H](+)-MK-801, pig brain preparations. The conditions noted are these: n = 3, values without SEM mean of two experiments.
Data set [2] concerns the target T2, ifenprodil binding site of NMDA receptors with GluN2B subunit (Homo sapiens, UniProt Q05586+Q13224).
T2 construct: expressed in transfected cells; host or cells: mouse L(tk-) cells, stably transfected, expression induced with dexamethasone; membrane homogenate
The data set is described as follows: biochemical. The conditions noted are these: read-out: Ki ± SEM GluN2B.

Another data set addresses µ-opioid receptor (Cavia porcellus, UniProt A0ACM8Q262). The data set is described as follows: µ-opioid receptor binding study. The following applies: read-out: inhibition of the radioligand binding, µ receptor.
Another data set has as its target κ-opioid receptor (Cavia porcellus, UniProt P41144). The data set is described as follows: κ-opioid receptor binding study. The conditions noted are these: read-out: inhibition of the radioligand binding, κ receptor.
The next data set addresses δ-opioid receptor (Rattus norvegicus, UniProt P33533). Briefly: δ-opioid receptor binding study. The following applies: read-out: inhibition of the radioligand binding, δ receptor.
Data set [3] addresses T3, σ1 receptor (Cavia porcellus, UniProt Q60492).
The conditions of data set [4]: after 90 min incubation with mouse liver microsomes and NADPH.
The next data set can be described thus: physchem. The conditions noted are these: pH 7.4.
In data set [5] the target is T3, σ1 receptor. The data set is described as follows: biochemical.
For data set [6], the system named is capsaicin mouse model of neuropathic pain. The following applies: dose of 0.25 mg/kg body weight; cited from earlier work.

Molecules are shown by their SMILES.

T3 sequence (Q60492 whole entry): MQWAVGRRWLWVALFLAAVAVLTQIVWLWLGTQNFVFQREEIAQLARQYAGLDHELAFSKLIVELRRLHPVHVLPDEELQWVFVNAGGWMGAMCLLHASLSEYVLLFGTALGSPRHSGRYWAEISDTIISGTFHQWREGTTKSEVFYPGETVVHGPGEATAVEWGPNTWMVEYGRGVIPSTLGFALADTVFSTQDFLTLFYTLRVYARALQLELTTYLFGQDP
κ-opioid receptor, sequence (P41144 whole entry): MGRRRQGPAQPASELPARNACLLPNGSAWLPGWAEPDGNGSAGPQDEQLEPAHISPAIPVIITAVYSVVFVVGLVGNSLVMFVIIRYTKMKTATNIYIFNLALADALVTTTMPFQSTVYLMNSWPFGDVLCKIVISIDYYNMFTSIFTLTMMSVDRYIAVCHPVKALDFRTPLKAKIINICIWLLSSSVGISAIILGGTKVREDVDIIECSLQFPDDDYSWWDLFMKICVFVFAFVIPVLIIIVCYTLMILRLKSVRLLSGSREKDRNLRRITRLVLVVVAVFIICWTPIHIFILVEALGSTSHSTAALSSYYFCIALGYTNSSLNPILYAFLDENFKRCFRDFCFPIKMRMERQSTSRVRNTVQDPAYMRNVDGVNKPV
δ-opioid receptor, sequence (P33533 whole entry): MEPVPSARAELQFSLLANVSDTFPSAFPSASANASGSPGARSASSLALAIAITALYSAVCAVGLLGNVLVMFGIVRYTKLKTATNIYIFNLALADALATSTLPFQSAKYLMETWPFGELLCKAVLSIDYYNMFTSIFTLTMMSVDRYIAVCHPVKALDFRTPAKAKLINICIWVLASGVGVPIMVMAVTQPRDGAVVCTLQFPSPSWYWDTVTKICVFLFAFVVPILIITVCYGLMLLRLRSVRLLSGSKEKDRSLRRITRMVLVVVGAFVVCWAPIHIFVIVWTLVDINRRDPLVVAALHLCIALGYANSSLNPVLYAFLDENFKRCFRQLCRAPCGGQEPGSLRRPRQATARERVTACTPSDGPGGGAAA
T2 sequence (Q13224 27-1484, other chains not shown): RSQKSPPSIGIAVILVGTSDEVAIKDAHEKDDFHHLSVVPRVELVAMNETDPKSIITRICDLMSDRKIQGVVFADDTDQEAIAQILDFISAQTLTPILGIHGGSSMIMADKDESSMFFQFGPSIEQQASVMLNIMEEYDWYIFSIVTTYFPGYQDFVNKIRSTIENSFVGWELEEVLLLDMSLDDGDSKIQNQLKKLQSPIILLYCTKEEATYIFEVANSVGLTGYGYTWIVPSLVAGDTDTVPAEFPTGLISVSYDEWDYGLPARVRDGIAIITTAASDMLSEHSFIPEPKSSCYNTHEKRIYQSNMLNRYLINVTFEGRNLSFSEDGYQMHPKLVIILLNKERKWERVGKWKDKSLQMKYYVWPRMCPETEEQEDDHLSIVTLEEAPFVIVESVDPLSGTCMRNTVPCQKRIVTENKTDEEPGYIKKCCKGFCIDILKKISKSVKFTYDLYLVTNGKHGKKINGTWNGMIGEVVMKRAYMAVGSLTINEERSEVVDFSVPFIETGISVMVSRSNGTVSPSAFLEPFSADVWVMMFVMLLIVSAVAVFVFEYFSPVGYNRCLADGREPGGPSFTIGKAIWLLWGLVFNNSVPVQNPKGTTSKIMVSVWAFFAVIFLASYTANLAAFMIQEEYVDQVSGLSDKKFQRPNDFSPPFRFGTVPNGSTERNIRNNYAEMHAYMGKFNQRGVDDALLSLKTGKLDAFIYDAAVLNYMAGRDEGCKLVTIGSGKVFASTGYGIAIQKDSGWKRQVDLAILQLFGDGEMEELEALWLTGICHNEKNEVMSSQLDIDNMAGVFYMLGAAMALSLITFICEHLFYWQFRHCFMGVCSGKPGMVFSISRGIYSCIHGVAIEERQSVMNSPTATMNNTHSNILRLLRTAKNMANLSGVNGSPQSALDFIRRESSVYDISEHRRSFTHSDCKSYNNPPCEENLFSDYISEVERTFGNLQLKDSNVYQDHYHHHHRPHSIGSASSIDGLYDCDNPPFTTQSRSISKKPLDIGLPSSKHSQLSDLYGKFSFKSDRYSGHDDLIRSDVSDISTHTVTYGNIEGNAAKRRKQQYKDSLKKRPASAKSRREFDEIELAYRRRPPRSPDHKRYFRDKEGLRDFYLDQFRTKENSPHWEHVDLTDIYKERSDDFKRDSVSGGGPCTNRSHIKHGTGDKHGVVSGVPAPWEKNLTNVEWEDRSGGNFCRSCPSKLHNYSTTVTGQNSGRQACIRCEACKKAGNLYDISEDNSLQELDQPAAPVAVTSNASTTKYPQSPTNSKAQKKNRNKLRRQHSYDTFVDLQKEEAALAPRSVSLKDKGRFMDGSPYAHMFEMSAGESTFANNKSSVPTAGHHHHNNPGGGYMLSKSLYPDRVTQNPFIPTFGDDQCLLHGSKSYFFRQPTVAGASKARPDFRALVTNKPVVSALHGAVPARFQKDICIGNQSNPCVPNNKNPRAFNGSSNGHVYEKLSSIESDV
µ-opioid receptor, sequence (A0ACM8Q262 1-400): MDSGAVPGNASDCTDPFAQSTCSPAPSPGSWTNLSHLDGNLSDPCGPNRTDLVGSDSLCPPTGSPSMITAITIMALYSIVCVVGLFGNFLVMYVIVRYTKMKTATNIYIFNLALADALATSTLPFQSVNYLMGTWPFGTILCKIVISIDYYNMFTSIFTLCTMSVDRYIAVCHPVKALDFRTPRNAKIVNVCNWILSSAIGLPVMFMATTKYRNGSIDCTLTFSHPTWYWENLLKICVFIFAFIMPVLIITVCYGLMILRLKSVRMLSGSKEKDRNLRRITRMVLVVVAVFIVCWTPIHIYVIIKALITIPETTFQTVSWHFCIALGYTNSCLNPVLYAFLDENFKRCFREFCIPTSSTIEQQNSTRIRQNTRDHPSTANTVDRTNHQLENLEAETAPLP

On to `CN(CCCC[C@H]1CCO[C@@H](c2ccccc2)O1)Cc1ccccc1` (relative stereo) [18a, N-Benzyl-N-methyl-4-(cis-2-phenyl-1,3-dioxan-4-yl)butan-1-amine], for which the inhibitory constant (Ki) was 31 ± 3.1 nM at σ2 receptor; greater than 1000 nM in data set [1]; 261 ± 54 nM in [2]; 6.3 ± 2.4 nM at σ1 receptor [5] (Ki ± SEM σ1); 6.31 nM at σ1 receptor [5] (pKi(σ1)). The inhibition at 1 µM at µ-opioid receptor, at κ-opioid receptor and at δ-opioid receptor was 0% in each case. In addition, the “LLE (ligand-lipophilicity efficiency)” value on σ1 receptor [3] is reported as 5.71. On σ1 receptor [3], the “selectivity for the σ1 receptor against the ifenprodil binding site” value was greater than 40 fold. Also, on σ1 receptor [3] (σ1 over σ2), the “σ1:σ2 receptor selectivity” value came to 5 fold. In addition, the “Metabolic Stability (5): amount of the remaining unmetabolized parent compound” value in [4] turned out to be 48 ± 4%. For the same molecule, the pH-dependent lipophilicity (logD) in the data set “physchem” worked out at 2.49 ± 0.05.

Regarding `c1ccc(CNCCC2CCOC(c3ccccc3)O2)cc1` (centres unmarked) [compound 1], the analgesic activity in data set [6] is 70%.
